From patent US20240270821A1, “GIP/GLP1/GCG TRI-RECEPTOR AGONISTS AND USES THEREOF” (priority 2023, published 2024)
Read-outs that look alike come from different tables or passages of the source. Starred links: 1 amine or outer side, 2 acyl side, 3 side chain; linkers in the order of their positions; H or OH if unused. Non-standard residues stand in square brackets, D forms with d. Residues, ends and D or L forms follow the SMILES beside them. Groups on a side chain read outwards from the residue. No end group written: not given here. *: point of attachment. C20 diacid = O=C(O)CCCCCCCCCCCCCCCCCCC(=O)*; C18 diacid = O=C(O)CCCCCCCCCCCCCCCCC(=O)*; αMePhe(2-F) = C[C@](N)(Cc1ccccc1F)C(=O)O; γGlu = O=C(O)[C@H](CCC(=O)[*:2])N[*:1]; αMe4Pal = C[C@](N)(Cc1ccncc1)C(=O)O; αMeY = C[C@](N)(Cc1ccc(O)cc1)C(=O)O; 3Pal = N[C@@H](Cc1cccnc1)C(=O)O; 4Pal = N[C@@H](Cc1ccncc1)C(=O)O; αMeL = CC(C)C[C@](C)(N)C(=O)O; αMeS = C[C@](N)(CO)C(=O)O; Orn = NCCC[C@H](N)C(=O)O; AEEA = NCCOCCOCC(=O)O; Aib = CC(C)(N)C(=O)O

How the values were obtained:
Format in all cases: cell-based
[1] = molecular target: T1, hGIPR (Homo sapiens, UniProt P48546); assay: Functional cAMP activity in the presence of 1% HSA; conditions: read-out: cAMP Rel EC50, hGIPR
T1 sequence (P48546 22-466): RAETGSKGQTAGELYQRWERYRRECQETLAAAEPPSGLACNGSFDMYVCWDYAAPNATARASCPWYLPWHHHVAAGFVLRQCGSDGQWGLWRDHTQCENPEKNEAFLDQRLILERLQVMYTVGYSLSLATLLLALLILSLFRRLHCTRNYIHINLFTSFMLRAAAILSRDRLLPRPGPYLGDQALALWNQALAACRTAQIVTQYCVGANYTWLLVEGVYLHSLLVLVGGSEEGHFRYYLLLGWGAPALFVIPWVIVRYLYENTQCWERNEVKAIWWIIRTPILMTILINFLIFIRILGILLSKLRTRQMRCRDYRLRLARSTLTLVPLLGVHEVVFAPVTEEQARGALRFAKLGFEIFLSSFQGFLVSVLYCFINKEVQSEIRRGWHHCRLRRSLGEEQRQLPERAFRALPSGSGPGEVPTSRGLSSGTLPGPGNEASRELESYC

[2] = molecular target: T2, hGLP-1R (Homo sapiens, UniProt P43220); assay: Functional cAMP activity in the presence of 1% HSA; conditions: read-out: cAMP Rel EC50, hGLP-1R
T2 sequence (P43220 24-463): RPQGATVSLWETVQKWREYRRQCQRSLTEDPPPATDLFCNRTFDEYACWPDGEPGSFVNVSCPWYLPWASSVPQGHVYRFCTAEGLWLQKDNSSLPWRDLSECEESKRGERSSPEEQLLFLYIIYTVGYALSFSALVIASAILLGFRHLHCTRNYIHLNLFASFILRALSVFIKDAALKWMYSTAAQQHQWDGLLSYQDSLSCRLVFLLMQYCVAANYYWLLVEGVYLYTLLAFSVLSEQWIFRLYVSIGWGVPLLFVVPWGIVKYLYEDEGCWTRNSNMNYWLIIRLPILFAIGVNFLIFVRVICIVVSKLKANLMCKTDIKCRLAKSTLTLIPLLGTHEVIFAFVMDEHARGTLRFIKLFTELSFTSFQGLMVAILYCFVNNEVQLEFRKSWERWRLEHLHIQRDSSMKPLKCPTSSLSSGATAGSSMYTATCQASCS

[3] = molecular target: human GcgR (Homo sapiens, UniProt P47871); assay: Functional cAMP activity in the presence of 1% HSA; conditions: read-out: cAMP Rel EC50, hGcgR
Sequence of human GcgR (P47871 26-477): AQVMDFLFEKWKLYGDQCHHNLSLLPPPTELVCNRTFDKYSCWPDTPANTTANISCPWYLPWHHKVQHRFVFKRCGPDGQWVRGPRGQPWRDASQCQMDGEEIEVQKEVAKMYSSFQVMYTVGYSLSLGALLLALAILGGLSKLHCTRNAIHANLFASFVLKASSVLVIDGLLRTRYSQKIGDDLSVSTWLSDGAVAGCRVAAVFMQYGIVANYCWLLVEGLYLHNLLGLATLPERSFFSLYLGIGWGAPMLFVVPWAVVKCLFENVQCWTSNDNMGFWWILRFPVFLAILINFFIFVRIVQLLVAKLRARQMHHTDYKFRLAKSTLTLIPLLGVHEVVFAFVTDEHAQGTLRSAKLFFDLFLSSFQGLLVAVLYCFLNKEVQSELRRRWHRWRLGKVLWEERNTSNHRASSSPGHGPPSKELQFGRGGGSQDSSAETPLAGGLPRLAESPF

[4] = molecular target: T1, hGIPR; assay: Functional cAMP activation in the presence of 0.1% casein (no HSA); conditions: read-out: Relative cAMP EC50, hGIPR;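 as to Relative cAMP EC50, hGIPR: intracellular cAMP rise after 30 min at 37 °C read by HTRF against a standard curve, scaled between buffer alone (0%) and top control ligand concentration (100%), four-parameter fit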;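 as to Relative cAMP EC50, hGLP-1R: intracellular cAMP rise after 30 min at 37 °C read by HTRF, normalized between buffer only (0%) and maximal control ligand (100%), four-parameter variable-slope fit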;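 as to Relative cAMP EC50, hGcgR: intracellular cAMP rise after 30 min at 37 °C, read by HTRF against a cAMP standard curve, scaled from buffer only (0%) to maximal control ligand response (100%)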
[5] = molecular target: T2, hGLP-1R; assay: as above; conditions: read-out: Relative cAMP EC50, hGLP-1R
[6] = molecular target: hGcgR (Homo sapiens, UniProt P47871); assay: as above; conditions: read-out: Relative cAMP EC50, hGcgR;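 also: intracellular cAMP rise after 30 min at 37 °C, read by HTRF against a cAMP standard curve, scaled from buffer only (0%) to maximal control ligand response (100%)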
Sequence of hGcgR (P47871 26-477): as above

[7] = in the presence of 0.1% casein (no HSA), geometric mean

| EC50 [4, 7] [nM] | EC50 [5, 7] [nM] | EC50 [6, 7] [nM] | Molecule | EC50 [1] [nM] | EC50 [2] [nM] | EC50 [3] [nM] | EC50 [4] [nM] | EC50 [5] [nM] | EC50 [6] [nM] |
| --- | --- | --- | --- | --- | --- | --- | --- | --- | --- |
| 0.152 | 0.555 | 5.12 | Y[Aib]QGTFTSDYSI[αMeL]LDKQAAK([AEEA-AEEA-γGlu-C20 diacid])QFIEYLIA[Aib]GPSSGEPPPSEG-NH2 [Example 349] | 52.6 | 218 | 2280 |  |  |  |
|  |  |  | CC[C@H](C)[C@H](NC(=O)[C@H](Cc1ccccc1)NC(=O)[C@H](C)NC(=O)C(C)(C)NC(=O)[C@H](CCC(N)=O)NC(=O)[C@H](C)NC(=O)[C@H](CCCCNC(=O)COCCOCCNC(=O)CC[C@H](NC(=O)CCCCCCCCCCCCCCCCC(=O)O)C(=O)O)NC(=O)[C@H](CCCCN)NC(=O)[C@H](CC(=O)O)NC(=O)[C@H](CC(C)C)NC(=O)[C@H](CC(C)C)NC(=O)[C@@H](NC(=O)[C@](C)(CO)NC(=O)[C@H](Cc1cccnc1)NC(=O)[C@H](CC(=O)O)NC(=O)[C@H](CO)NC(=O)[C@@H](NC(=O)[C@](C)(Cc1ccccc1F)NC(=O)[C@@H](NC(=O)CNC(=O)[C@H](CCC(N)=O)NC(=O)C(C)(C)NC(=O)[C@@H](N)Cc1ccc(O)cc1)[C@@H](C)O)[C@@H](C)O)[C@@H](C)CC)C(=O)N[C@@H](CCC(=O)O)C(=O)N[C@@H](Cc1ccc(O)cc1)C(=O)N[C@@H](CC(C)C)C(=O)N[C@@H](CCC(=O)O)C(=O)N[C@@H](CCC(=O)O)C(=O)NCC(=O)NCC(=O)N1CCC[C@H]1C(=O)N[C@@H](CO)C(=O)N[C@@H](CO)C(=O)NCC(=O)N[C@@H](C)C(=O)N1CCC[C@H]1C(=O)N1CCC[C@H]1C(=O)N1CCC[C@H]1C(=O)N[C@@H](CCC(=O)O)C(N)=O [Example 465] (H-Y[Aib]QGT[αMePhe(2-F)]TSD[3Pal][αMeS]ILLDKK([AEEA-γGlu-C18 diacid])AQ[Aib]AFIEYLEEGGPSSGAPPPE-NH2) | 44.6 | 56.3 | 233 | 0.148 | 0.575 | 1.5 |
| 0.184 | 1.31 | 6.83 | H-Y[Aib]QGTFTSDYSK[αMeL]LDKK([AEEA-γGlu-C20 diacid])AQ[Aib]AFVQWLLEGGPSSGEPPPSEG-NH2 [Example 343] | 16.7 | 178 | 475 |  |  |  |
|  |  |  | CC[C@H](C)[C@H](NC(=O)[C@H](Cc1ccccc1)NC(=O)[C@H](C)NC(=O)C(C)(C)NC(=O)[C@H](CCC(N)=O)NC(=O)[C@H](C)NC(=O)[C@H](CCCCNC(=O)COCCOCCNC(=O)COCCOCCNC(=O)CC[C@H](NC(=O)CCCCCCCCCCCCCCCCC(=O)O)C(=O)O)NC(=O)[C@H](CCCCN)NC(=O)[C@H](CC(=O)O)NC(=O)[C@H](CC(C)C)NC(=O)[C@H](CC(C)C)NC(=O)[C@@H](NC(=O)[C@](C)(CO)NC(=O)[C@H](Cc1ccc(O)cc1)NC(=O)[C@H](CC(=O)O)NC(=O)[C@H](CO)NC(=O)[C@@H](NC(=O)[C@](C)(Cc1ccccc1F)NC(=O)[C@@H](NC(=O)CNC(=O)[C@H](CCC(N)=O)NC(=O)C(C)(C)NC(=O)[C@@H](N)Cc1ccc(O)cc1)[C@@H](C)O)[C@@H](C)O)[C@@H](C)CC)C(=O)N[C@@H](CCC(=O)O)C(=O)N[C@@H](Cc1ccc(O)cc1)C(=O)N[C@@H](CC(C)C)C(=O)N[C@@H](CCC(=O)O)C(=O)N[C@@H](CCC(=O)O)C(=O)NCC(=O)NCC(=O)N1CCC[C@H]1C(=O)N[C@@H](CO)C(=O)N[C@@H](CO)C(=O)NCC(=O)N[C@@H](C)C(=O)N1CCC[C@H]1C(=O)N1CCC[C@H]1C(=O)N1CCC[C@H]1C(=O)N[C@@H](CCC(=O)O)C(N)=O [Example 468] (H-Y[Aib]QGT[αMePhe(2-F)]TSDY[αMeS]ILLDKK([AEEA-AEEA-γGlu-C18 diacid])AQ[Aib]AFIEYLEEGGPSSGAPPPE-NH2) | 4.76 | 30.7 | 195 | 0.0222 | 0.466 | 1.95 |
| 0.328 | 4.94 | 3.91 | H-Y[Aib]QGTFTSD[4Pal]S[Orn][αMeL]LDKK([γGlu-γGlu-C18 diacid])AQ[αMe4Pal]AFIEYLIAGGPSSGEPPPSGTEEE-NH2 [Example 982] | 19.4 | 310 | 307 |  |  |  |
| 0.502 | 3.95 | 3.77 | H-Y[Aib]QGTFTSDFSK[αMeL]LDKK([AEEA-γGlu-C20 diacid])AQ[Aib]AFIEYLLEGGPSSGEPPPGEG[AEEA]-NH2 [Example 54] | 168 | 1300 | 1940 |  |  |  |

| Molecule | EC50 [4, 7] [nM] | EC50 [5, 7] [nM] | EC50 [6, 7] [nM] | EC50 [1] [nM] | EC50 [2] [nM] | EC50 [3] [nM] | EC50 [4] [nM] | EC50 [5] [nM] | EC50 [6] [nM] |
| --- | --- | --- | --- | --- | --- | --- | --- | --- | --- |
| H-Y[Aib]QGTFTSD[4Pal]S[Orn][αMeL]LDKK([γGlu-γGlu-C18 diacid])AQ[Aib]AFIE[αMeY]LIEGGPSSGAPPPSGS-NH2 [Example 941] | 0.183 | 0.764 | 11.7 | 22.1 | 113 | 1430 |  |  |  |
| H-Y[Aib]QGTFTSDFSK[αMeL]LDKK([AEEA-γGlu-C18 diacid])AQ[Aib]AFIEYLIE[Aib]SPSSGAPPPSGS-NH2 [Example 805] | 0.0875 | 0.715 | 3.97 | 13 | 146 | 1210 |  |  |  |
| H-Y[Aib]QGTFTSD[4Pal]S[Orn][αMeL]LD[Orn]K([γGlu-γGlu-C18 diacid])AQ[αMe4Pal]EFIE[αMeY]LLEGGPSSGAPPPSGSEE-NH2 [Example 976] | 0.441 | 21.8 | 8.75 | 82.7 | 2860 | 848 |  |  |  |
